Like-named read-outs stand apart in the source and are kept apart here.
Assays:
[1] = PPB; assay type: in vitro ADME; details: plasma
[2] = Pharmacokinetics of intraperitoneal or intravenous injection in CD1 mice; assay type: in vivo; details: for concentration at 0.25 h / concentration at 0.5 h / concentration at 1 h / concentration at 2 h / concentration at 4 h / concentration at 8 h / concentration at 24 h / AUC(0-t) / half-life / concentration at 0.033 h / concentration at 0.083 h: male, CD1, mouse, plasma
Outline: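 Male CD1 mice, 6-8 weeks old, 3 per group, dosed IV (5 s injection; 10% HP-b-CD, 40 mM sodium acetate, 40 mM NaCl, pH 4.5) or IP (5% EtOH, 5% Solutol HS15 in D5W). Serial dorsal metatarsal vein blood, terminal heart puncture; plasma analysed by LC/MS/MS after acetonitrile precipitation, calibration 1-2000 ng/mL.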

[3] = IV 1.0 mg/kg, CD1 mice plasma, 24 h
[4] = ip, 10 mg/kg, IP 10 mg/kg, CD1 mice plasma, read-out: Conc. (ng/mL) Mouse 1
[5] = ip, 10 mg/kg, IP 10 mg/kg, CD1 mice plasma, read-out: Conc. (ng/mL) Mouse 2
[6] = ip, 10 mg/kg, IP 10 mg/kg, CD1 mice plasma, read-out: Conc. (ng/mL) Mouse 3
[7] = ip, 10 mg/kg, IP 10 mg/kg, CD1 mice plasma, read-out: Mean
[8] = iv, 1 mg/kg, IV 1.0 mg/kg, CD1 mice plasma, read-out: Conc. (ng/mL) Mouse 1
[9] = iv, 1 mg/kg, IV 1.0 mg/kg, CD1 mice plasma, read-out: Conc. (ng/mL) Mouse 2
[10] = iv, 1 mg/kg, IV 1.0 mg/kg, CD1 mice plasma, read-out: Conc. (ng/mL) Mouse 3
[11] = iv, 1 mg/kg, IV 1.0 mg/kg, CD1 mice plasma, read-out: Mean

fraction unbound [1]: 0.0022
Conc. (ng/mL) Mouse 2 ([2]; IP 10 mg/kg, CD1 mice plasma, 24 h): BLOQ
Conc. (ng/mL) Mouse 1 [2, 3]: BLOQ
Conc. (ng/mL) Mouse 2 [2, 3]: BLOQ
Conc. (ng/mL) Mouse 3 [2, 3]: BLOQ
concentration at 0.25 h [2, 4]: 877 ng/mL
concentration at 0.25 h [2, 5]: 494 ng/mL
concentration at 0.25 h [2, 6]: 562 ng/mL
concentration at 0.25 h [2, 7]: 645 ng/mL
concentration at 0.5 h [2, 4]: 842 ng/mL
concentration at 0.5 h [2, 5]: 639 ng/mL
concentration at 0.5 h [2, 6]: 608 ng/mL
concentration at 0.5 h [2, 7]: 696 ng/mL
concentration at 1 h [2, 4]: 2010 ng/mL
concentration at 1 h [2, 5]: 2460 ng/mL
concentration at 1 h [2, 6]: 1230 ng/mL
concentration at 1 h [2, 7]: 1900 ng/mL
concentration at 2 h [2, 4]: 2130 ng/mL
concentration at 2 h [2, 5]: 3300 ng/mL
concentration at 2 h [2, 6]: 826 ng/mL
concentration at 2 h [2, 7]: 2090 ng/mL
concentration at 4 h [2, 4]: 1260 ng/mL
concentration at 4 h [2, 5]: 1210 ng/mL
concentration at 4 h [2, 6]: 768 ng/mL
concentration at 4 h [2, 7]: 1080 ng/mL
concentration at 8 h [2, 4]: 321 ng/mL
concentration at 8 h [2, 5]: 68.5 ng/mL
concentration at 8 h [2, 6]: 306 ng/mL
concentration at 8 h [2, 7]: 232 ng/mL
concentration at 24 h ([2]; ip, 10 mg/kg, IP 10 mg/kg, CD1 mice plasma, 24 h, read-out: Conc. (ng/mL) Mouse 1): 0.824 ng/mL
concentration at 24 h ([2]; ip, 10 mg/kg, IP 10 mg/kg, CD1 mice plasma, 24 h, read-out: Conc. (ng/mL) Mouse 3): 4.5 ng/mL
concentration at 24 h ([2]; ip, 10 mg/kg, IP 10 mg/kg, CD1 mice plasma, 24 h, read-out: Mean): 2.66 ng/mL
AUC(0-t) ([2]; ip, 10 mg/kg, read-out: AUClast (h * ng/mL) IP): 10400 ng·h/mL
half-life ([2]; ip, 10 mg/kg, read-out: T ½ (h) IP (converted)): 1.87 h
concentration at 0.033 h [2, 8]: 4370 ng/mL
concentration at 0.033 h [2, 9]: 3940 ng/mL
concentration at 0.033 h [2, 10]: 4020 ng/mL
concentration at 0.033 h [2, 11]: 4110 ng/mL
concentration at 0.083 h [2, 8]: 1660 ng/mL
concentration at 0.083 h [2, 9]: 1730 ng/mL
concentration at 0.083 h [2, 10]: 1820 ng/mL
concentration at 0.083 h [2, 11]: 1740 ng/mL
concentration at 0.25 h [2, 8]: 376 ng/mL
concentration at 0.25 h [2, 9]: 382 ng/mL
concentration at 0.25 h [2, 10]: 395 ng/mL
concentration at 0.25 h [2, 11]: 384 ng/mL
concentration at 0.5 h [2, 8]: 140 ng/mL
concentration at 0.5 h [2, 9]: 132 ng/mL
concentration at 0.5 h [2, 10]: 135 ng/mL
concentration at 0.5 h [2, 11]: 136 ng/mL
concentration at 1 h [2, 8]: 52.1 ng/mL
concentration at 1 h [2, 9]: 58.8 ng/mL
concentration at 1 h [2, 10]: 57.5 ng/mL
concentration at 1 h [2, 11]: 56.2 ng/mL
concentration at 2 h [2, 8]: 36.1 ng/mL
concentration at 2 h [2, 9]: 27.7 ng/mL
concentration at 2 h [2, 10]: 32.1 ng/mL
concentration at 2 h [2, 11]: 32 ng/mL
concentration at 4 h [2, 8]: 10.8 ng/mL
concentration at 4 h [2, 9]: 12.9 ng/mL
concentration at 4 h [2, 10]: 13 ng/mL
concentration at 4 h [2, 11]: 12.3 ng/mL
concentration at 8 h [2, 8]: 2.33 ng/mL
concentration at 8 h [2, 9]: 8.35 ng/mL
concentration at 8 h [2, 10]: 4.11 ng/mL
concentration at 8 h [2, 11]: 4.93 ng/mL
AUC(0-t) ([2]; iv, 1 mg/kg, read-out: AUClast (h * ng/mL) IV): 747 ng·h/mL
half-life ([2]; iv, 1 mg/kg, read-out: T ½ (h) IV (converted)): 2.44 h
SMILES: Cc1ncsc1-c1ccc(CNC(=O)[C@@H]2C[C@@H](O)CN2C(=O)[C@@H](NC(=O)CCOCCCOc2ccc(Nc3ncc(C(F)(F)F)c(NCc4cccc(N(C)S(C)(=O)=O)c4)n3)cc2)C(C)(C)C)cc1 [Compound 103, (2S,4R)-1-((S)-3,3-dimethyl-2-(3-(3-(4-((4-((3-(N-methylmethylsulfonamido)benzyl)amino)-5-(trifluoromethyl)pyrimidin-2-yl)amino)phenoxy)propoxy)propanamido)butanoyl)-4-hydroxy-N-(4-(4-methylthiazol-5-yl)benzyl)pyrrolidine-2-carboxamide]

From patent US20200038513A1, “MODULATORS OF FAK PROTEOLYSIS AND ASSOCIATED METHODS OF USE” (ARVINAS OPERATIONS, INC., priority 2018, published 2020)
